The values that follow come from patent US10112955B2, “Isoindoline, azaisoindoline, dihydroindenone and dihydroazaindenone inhibitors of Mnk1 and Mnk2” (eFFECTOR THERAPEUTICS, INC., priority 2015, dated 2018).

Where a name gives a salt, the structure may show the parent alone.

Broadly, the IC50 is the point on the concentration scale where inhibition reaches its midpoint.

Chain of MNK2 (Q9HBH9 whole entry): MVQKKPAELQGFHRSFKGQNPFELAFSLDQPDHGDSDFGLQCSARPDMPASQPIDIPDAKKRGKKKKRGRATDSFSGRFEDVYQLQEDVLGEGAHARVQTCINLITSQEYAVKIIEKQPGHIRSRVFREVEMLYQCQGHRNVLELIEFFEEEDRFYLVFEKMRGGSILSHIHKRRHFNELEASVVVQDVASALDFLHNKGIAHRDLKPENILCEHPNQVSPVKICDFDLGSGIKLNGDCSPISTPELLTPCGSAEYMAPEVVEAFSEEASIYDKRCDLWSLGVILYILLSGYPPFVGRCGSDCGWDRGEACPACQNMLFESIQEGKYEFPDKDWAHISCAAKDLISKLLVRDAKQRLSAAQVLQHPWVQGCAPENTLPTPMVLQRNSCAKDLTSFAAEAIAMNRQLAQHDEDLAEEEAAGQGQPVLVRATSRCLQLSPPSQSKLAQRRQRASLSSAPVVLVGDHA

In the first test the test system is Phosphorylated eIF4E. Kind of test: peIF4E Signaling Cellular Assay (CisBio peIF4E HTRF). The class given is cell-based. As to conditions: cells incubated with compound for 2 hrs at 37° C., 12-point curve. How it is done:
Phosphorylated eIF4E is assayed using the CisBio peIF4E HTRF® assay kit (CisBio, catalogue No. 64EF4PEG). Cells are plated in 96-well tissue-culture treated plate in appropriate growth medium (90 μL). Compounds (10×) are diluted using 3-fold serial dilutions in cell culture medium and added to cells. Plates are incubated for 2 hrs at 37° C. The cell supernatant is carefully removed either by aspirating supernatant or by flicking the plate. Immediately 50 μL of supplemented lysis buffer (1×) is added and incubated for at least 30 minutes at room temperature under shaking. After homogenization by pipeting up and down, 16 μL of cell lysate is transferred from the 96-well cell-culture plate to a 384-well small volume white plate. 4 μL of premixed antibody solutions (vol/vol) is prepared in the detection buffer and added. The plate is covered with a plate sealer and incubated overnight at room temperature. The fluorescence emissions at two different wavelengths are read (665 nm and 620 nm) on a Wallac Victor2. Emission ratios are converted into percent inhibitions and imported into GraphPad Prism software. […] IC50 values are determined using a nonlinear regression model available in GraphPad Prism 5.
On the technique in general: TR-FRET usually uses a lanthanide donor and a delayed reading to cut background.
In the case of `CCOc1c(N)ncnc1Nc1cc(C)c2c(c1)C1(CCCCC1)NC2=O` [Cpd. No. 76, 6′-((6-amino-5-ethoxypyrimidin-4-yl)amino)-4′-methylspiro[cyclohexane-1,1′-isoindolin]-3′-one], the IC50 is 50 to 1000 nM.
On the same count and under the same terms, the result for `Cc1cc(Nc2ncnc(N)c2C#N)cc2c1C(=O)NC21CCCCC1` [Cpd. No. 77, 4-amino-6-((4′-methyl-3′-oxospiro[cyclohexane-1,1′-isoindolin]-6′-yl)amino)pyrimidine-5-carbonitrile] reads below 50 nM; that for `COc1cc(Nc2ncnc(N)c2C)cc2c1C(=O)NC21CCCCC1` [Cpd. No. 78, 6′-((6-amino-5-methylpyrimidin-4-yl)amino)-4′-methoxyspiro[cyclohexane-1,1′-isoindolin]-3′-one], 1000 to 100000 nM; that for `Cc1c(N)ncnc1Nc1cc(C(F)(F)F)c2c(c1)C1(CCCCC1)NC2=O` [Cpd. No. 79, 6′-((6-amino-5-methylpyrimidin-4-yl)amino)-4′-(trifluoromethyl)spiro[cyclohexane-1,1′-isoindolin]-3′-one], 50 to 1000 nM.
Consider `Cc1cc(Nc2ncnc(N)c2C(F)(F)F)cc2c1C(=O)NC21CCCCC1` [Cpd. No. 80, 6′-((6-amino-5-(trifluoromethyl)pyrimidin-4-yl)amino)-4′-methylspiro[cyclohexane-1,1′-isoindolin]-3′-one], for which the IC50 is 50 to 1000 nM.
For `Cc1cc(Nc2ncnc(N)c2OCCN)cc2c1C(=O)NC21CCCCC1` [Cpd. No. 81, 6′-((6-amino-5-(2-aminoethoxy)pyrimidin-4-yl)amino)-4′-methylspiro[cyclohexane-1,1′-isoindolin]-3′-one hydrochloride], the IC50 is 50 to 1000 nM.
For `Cc1cc(Nc2ncnc(N)c2OC(F)(F)F)cc2c1C(=O)NC21CCCCC1` [Cpd. No. 83, 6′-((6-amino-5-(trifluoromethoxy)pyrimidin-4-yl)amino)-4′-methylspiro[cyclohexane-1,1′-isoindolin]-3′-one], the half-inhibitory concentration (IC50) was below 50 nM.
For the compound `Cc1cc(Nc2ncnc(N)c2OC(F)F)cc2c1C(=O)NC21CCCCC1` [Cpd. No. 84, 6′-((6-amino-5-(difluoromethoxy)pyrimidin-4-yl)amino)-4′-methylspiro[cyclohexane-1,1′-isoindolin]-3′-one], the half-inhibitory concentration (IC50) is 50 to 1000 nM.
With `CSc1c(N)ncnc1Nc1cc(C)c2c(c1)C1(CCCCC1)NC2=O` [Cpd. No. 85, 6′-((6-amino-5-(methylthio)pyrimidin-4-yl)amino)-4′-methylspiro[cyclohexane-1,1′-isoindolin]-3′-one trifluoroacetic acid salt], the IC50 lay within 50 to 1000 nM.
As for `Cc1cc(Nc2ncnc(N)c2S(C)(=O)=O)cc2c1C(=O)NC21CCCCC1` [Cpd. No. 86, 6′-((6-amino-5-(methylsulfonyl)pyrimidin-4-yl)amino)-4′-methylspiro[cyclohexane-1,1′-isoindolin]-3′-one], the IC50 was in the range of 50 to 1000 nM.
Regarding `Cc1cc(Nc2ncnc(N)c2OCCCN)cc2c1C(=O)NC21CCCCC1` [Cpd. No. 87, 6′-((6-amino-5-(3-aminopropoxy)pyrimidin-4-yl)amino)-4′-methylspiro[cyclohexane-1,1′-isoindolin]-3′-one hydrochloride salt], the IC50 fell in the range of 50 to 1000 nM.
With `Cc1c(N)ncnc1Nc1cc(C(F)F)c2c(c1)C1(CCCCC1)NC2=O` [Cpd. No. 88, 6′-((6-amino-5-methylpyrimidin-4-yl)amino)-4′-(difluoromethyl)spiro[cyclohexane-1,1′-isoindolin]-3′-one], the IC50 was in the range of 50 to 1000 nM.
For the compound `Cc1c(N)ncnc1Nc1cc(F)c2c(c1)C1(CCCCC1)NC2=O` [Cpd. No. 89, 6′-((6-amino-5-methylpyrimidin-4-yl)amino)-4′-fluorospiro[cyclohexane-1,1′-isoindolin]-3′-one], the 50% inhibitory concentration (IC50) lay within 50 to 1000 nM.
`CCc1cc(Nc2ncnc(N)c2C)cc2c1C(=O)NC21CCCCC1` [Cpd. No. 90, 6′-((6-amino-5-methylpyrimidin-4-yl)amino)-4′-ethylspiro [cyclohexane-1,1′-isoindolin]-3′-one]: the IC50 is 50 to 1000 nM.
As for `Cc1c(N)ncnc1Nc1cc(C#N)c2c(c1)C1(CCCCC1)NC2=O` [Cpd. No. 91, 6′-((6-amino-5-methylpyrimidin-4-yl)amino)-3′-oxospiro[cyclohexane-1,1′-isoindoline]-4′-carbonitrile], the IC50 was 1000 to 100000 nM.
The same measure, in the same setting: the result for `Cc1c(N)ncnc1Nc1cc(O)c2c(c1)C1(CCCCC1)NC2=O` [Cpd. No. 92, 6′-((6-amino-5-methylpyrimidin-4-yl)amino)-4′-hydroxyspiro[cyclohexane-1,1′-isoindolin]-3′-one] reads 1000 to 100000 nM.
Regarding `Cc1cc(Nc2ncnc(N)c2C)c(O)c2c1C(=O)NC21CCCCC1` [Cpd. No. 93, 6′-((6-amino-5-methylpyrimidin-4-yl)amino)-7′-hydroxy-4′-methylspiro[cyclohexane-1,1′-isoindolin]-3′-one], the IC50 fell in the range of 50 to 1000 nM.
For `COc1c(Nc2ncnc(N)c2C)cc(C)c2c1C1(CCCCC1)NC2=O` [Cpd. No. 94, 6′-((6-amino-5-methylpyrimidin-4-yl)amino)-7′-methoxy-4′-methylspiro[cyclohexane-1,1′-isoindolin]-3′-one], the IC50 was in the range of 50 to 1000 nM.
The same measure, in the same setting: under `Cc1cc(Nc2ncnc(N)c2C)c(Cl)c2c1C(=O)NC21CCCCC1` [Cpd. No. 96, 6′-((6-amino-5-methylpyrimidin-4-yl)amino)-7′-chloro-4′-methylspiro[cyclohexane-1,1′-isoindolin]-3′-one] stands 1000 to 100000 nM; under `Cc1cc(Nc2ncnc(N)c2C)cc2c1C(=O)NC2` [Cpd. No. 106, 5-((6-amino-5-methylpyrimidin-4-yl)amino)-7-methylisoindolin-1-one], 1000 to 100000 nM; under `Cc1cc(Nc2ncnc(N)c2C)cc2c1C(=O)CC21CCCCC1` [Cpd. No. 110, 6′-((6-amino-5-methylpyrimidin-4-yl)amino)-4′-methylspiro[cyclohexane-1,1′-inden]-3′(2′H)-one], 50 to 1000 nM.

A further test deals with MNK2 (Homo sapiens (Human), UniProt Q9HBH9). As to the kind of experiment: MNK Biochemical Enzymatic Assay (ADP-Glo), MNK2. As to conditions: 3 nM recombinant MNK2, 50 μM substrate peptide, 10 μM ATP. How it is done:
Compounds are screened for MNK inhibition using the ADP-Glo kinase assay kit (Promega, catalogue No. V9101). All kinase reactions are performed in Reaction Buffer E (15 mM HEPES pH7.4, 20 mM NaCl, 1 mM EGTA, 10 mM MgCl2, 0.1 mg/ml BGG, and 0.02% Tween-20). […] Final DMSO concentration in each reaction is 1%.
Kinase reactions are carried out in 96-well half-area white flat-bottom polystyrene plates in a final volume of 25 μl. MNK1/2 enzymes are pre-incubated with compound and peptide substrate for 5 minutes prior to the addition of ATP. After the addition of ATP, kinase reactions are incubated at room temperature for 40 minutes. Reactions are subsequently stopped by the addition of 25 μl of ADP-Glo Reagent and incubating for an additional 40 minutes. The final luminescent signal used for kinase activity readout is produced by the addition of 45 μl of Kinase Detection Reagent (ADP-Glo kit, Promega) and incubating for 40 minutes.
As for `CSc1cc(Nc2ccc3c(c2)C(C)NC3=O)ncn1` (stereo not shown) [Cpd. No. 16, 3-methyl-5-((6-(methylthio)pyrimidin-4-yl)amino)isoindolin-1-one], the half-inhibitory concentration (IC50) was in the range of 100 to 10000 nM.
The same measure, in the same setting: under `CC1NC(=O)c2ccc(Nc3cc(NC(=O)C(C)(C)C)ncn3)cc21` (stereo not shown) [Cpd. No. 18, N-(6-((3-methyl-1-oxoisoindolin-5-yl)amino)pyrimidin-4-yl)pivalamide] stands 100 to 10000 nM.
Same read-out and setting: under `CC1c2cc(Nc3ccncn3)ccc2C(=O)N1C` (stereo not shown) [Cpd. No. 20, 2,3-dimethyl-5-(pyrimidin-4-ylamino)isoindolin-1-one] stands 100 to 10000 nM; under `CC1Cc2cc(Nc3ccncn3)ccc2NC1=O` (stereo not shown) [Cpd. No. 21, 3-methyl-6-(pyrimidin-4-ylamino)-3,4-dihydroquinolin-2(1H)-one], 100 to 10000 nM.
As to `CNc1cc(Nc2ccc3c(c2)C(C)NC3=O)ccn1` (stereo not shown) [Cpd. No. 25, 3-methyl-5-((2-(methylamino)pyridin-4-yl)amino) isoindolin-1-one], the concentration for half-maximal inhibition (IC50) was 100 to 10000 nM.
On the same count and under the same terms, under `Cc1cc(Nc2ccc3c(c2)C(C)NC3=O)ncn1` (stereo not shown) [Cpd. No. 26, 3-methyl-5-((6-methylpyrimidin-4-yl)amino)isoindolin-1-one] stands 100 to 10000 nM.
Turning to `O=c1[nH]sc2cc(Nc3ccncn3)ccc12` [Cpd. No. 27, 6-(pyrimidin-4-ylamino)benzo[d]isothiazol-3(2H)-one], the IC50 lay in the range of 100 to 10000 nM.
